Measured values from ChEMBL document CHEMBL5543155, “Design, Synthesis, and Biological Evaluation of β-Trifluoroethoxydimethyl Selenides as Potent Antiosteoporosis Agents” (J Med Chem, 2024).
Active and inactive are the calls of the source. The calls are words filed in the database; no cut-off is given here.

Tests used:
RAW264.7 [1] = experiment: Cytotoxicity against mouse RAW264.7 cells assessed as cell destruction at 5 uM incubated for 48 hrs by MTT assay; format: toxicity, cell-based; details: raw264.7, 48 h
RAW264.7 [2] = experiment: Inhibition of RANKL-induced osteoclast differentiation in mouse RAW264.7 cells at 5 uM incubated for 4 days with media replacement for every 2 days by TRAP-staining based light microscopic analysis; format: functional, cell-based; details: time 4.0 day

Row | Compound | Activity (RAW264.7 [1]) | inhibition (RAW264.7 [2])
1 | Cc1cnccc1NC(=O)C([Se]c1ccccc1)C(C)(C)OCC(F)(F)F (configuration not stated) | Non-Toxic | –
2 | CCCC[Se]C(C(=O)Nc1ccccc1)C(C)(C)OCC(F)(F)F (configuration not stated) | Non-Toxic | Active
3 | CCOC(C)(C)C([Se]c1ccccc1)C(=O)Nc1ccccc1 (configuration not stated) | Non-Toxic | –
4 | CC(C)(OCC(F)(F)F)C([Se]c1ccccc1)C(=O)Nc1ccnc(F)c1 (configuration not stated) | Non-Toxic | –
5 | Cc1cc(NC(=O)C([Se]c2ccccc2)C(C)(C)OCC(F)(F)F)ccn1 (configuration not stated) | Non-Toxic | –
6 | Cc1cc(Cl)ccc1NC(=O)C([Se]c1ccccc1)C(C)(C)OCC(F)(F)F (configuration not stated) | Non-Toxic | Active
7 | COc1ccc(NC(=O)C([Se]c2ccccc2)C(C)(C)OCC(F)(F)F)cc1 (configuration not stated) | Non-Toxic | Active
8 | CC(C)(OCC(F)(F)F)C([Se]c1ccc(F)cc1)C(=O)Nc1ccccc1 (configuration not stated) | Non-Toxic | Active
9 | COc1ccc([Se]C(C(=O)Nc2ccccc2)C(C)(C)OCC(F)(F)F)cc1 (configuration not stated) | Non-Toxic | Active
10 | CC(C)(OCC(F)(F)F)C([Se]c1ccccc1F)C(=O)Nc1ccccc1 (configuration not stated) | Non-Toxic | Active
11 | COc1cc(NC(=O)C([Se]c2ccccc2)C(C)(C)OCC(F)(F)F)ccn1 (configuration not stated) | Non-Toxic | –
12 | COc1ncccc1[Se]C(C(=O)Nc1ccccc1)C(C)(C)OCC(F)(F)F (configuration not stated) | Non-Toxic | Active
13 | CC(C)(OCC(F)(F)F)C([Se]c1ccccc1)C(=O)Nc1ccc(I)cc1 (configuration not stated) | Non-Toxic | Active
14 | CC(C)(OCC(F)(F)F)C([Se]c1ccccc1)C(=O)Nc1ccccn1 (configuration not stated) | Non-Toxic | –
15 | CC(C)(OCC(F)(F)F)C([Se]c1ccccc1)C(=O)Nc1ccc(Br)cc1 (configuration not stated) | Non-Toxic | Active
16 | CC(C)(OCC(F)(F)F)C([Se]c1ccccc1)C(=O)Nc1ccccc1F (configuration not stated) | Non-Toxic | –
17 | CC(C)(OCC(F)(F)F)C([Se]c1ccccc1Br)C(=O)Nc1ccccc1 (configuration not stated) | Non-Toxic | Active
18 | CC(C)(OCC(F)(F)F)C([Se]c1ccccc1)C(=O)Nc1ccnc(Br)c1 (configuration not stated) | Non-Toxic | –
19 | CC(C)(OCC(F)(F)F)C([Se]c1cccc(Br)c1)C(=O)Nc1ccccc1 (configuration not stated) | Non-Toxic | Active

Row | Compound | Activity (RAW264.7 [1]) | inhibition (RAW264.7 [2])
20 | CC(C)(OCC(F)(F)F)C([Se]c1ccc2c(c1)OCO2)C(=O)Nc1ccccc1 (configuration not stated) | Non-Toxic | Active
21 | CC(C)(OCC(F)(F)F)C([Se]c1ccc(Br)cc1)C(=O)Nc1ccccc1 (configuration not stated) | Non-Toxic | Active
22 | Cc1ccccc1[Se]C(C(=O)Nc1ccccc1)C(C)(C)OCC(F)(F)F (configuration not stated) | Non-Toxic | –
23 | CC(C)(OCC(F)(F)F)C([Se]c1ccccc1)C(=O)Nc1ccnc(Cl)c1 (configuration not stated) | Non-Toxic | –
24 | CC(C)(OCC(F)(F)F)C([Se]c1ccccc1)C(=O)Nc1cccc(Cl)c1 (configuration not stated) | Non-Toxic | Active
25 | Cc1ccc([Se]C(C(=O)Nc2ccccc2)C(C)(C)OCC(F)(F)F)cc1 (configuration not stated) | Non-Toxic | Active
26 | CC(C)(OCC(F)(F)F)C([Se]c1ccccc1)C(=O)Nc1cccnc1 (configuration not stated) | Non-Toxic | –
27 | CC(C)(OCC(F)(F)F)C([Se]c1ccccc1)C(=O)NC1CCCCC1 (configuration not stated) | Non-Toxic | Active
28 | COc1ccccc1NC(=O)C([Se]c1ccccc1)C(C)(C)OCC(F)(F)F (configuration not stated) | Non-Toxic | Active
29 | CC(C)(OCC(F)(F)F)C([Se]c1ccccc1Cl)C(=O)Nc1ccccc1 (configuration not stated) | Non-Toxic | Active
30 | CC(C)(OCC(F)(F)F)C([Se]c1ccccc1)C(=O)Nc1ccccc1 (configuration not stated) | Non-Toxic | –
31 | Cc1ccccc1NC(=O)C([Se]c1ccccc1)C(C)(C)OCC(F)(F)F (configuration not stated) | Non-Toxic | Active
32 | COc1ccccc1[Se]C(C(=O)Nc1ccccc1)C(C)(C)OCC(F)(F)F (configuration not stated) | Non-Toxic | Active
33 | CC(C)(OCC(F)(F)F)C([Se]c1ccccc1)C(=O)Nc1cccc(F)c1 (configuration not stated) | Non-Toxic | Active
34 | Cc1cccc([Se]C(C(=O)Nc2ccccc2)C(C)(C)OCC(F)(F)F)c1 (configuration not stated) | Non-Toxic | Active
35 | COc1ccc([Se]C(C(=O)Nc2ccncc2)C(C)(C)OCC(F)(F)F)cc1 (configuration not stated) | Non-Toxic | –
36 | CC(C)(OCC(F)(F)F)C([Se]c1ccc(F)cc1)C(=O)Nc1ccncc1 (configuration not stated) | Non-Toxic | –
37 | CC(C)(OCC(F)(F)F)C([Se]c1ccccc1)C(=O)Nc1cnc2ccccc2c1 (configuration not stated) | Non-Toxic | Active
38 | CC(C)(OCC(F)(F)F)C([Se]c1cccc(F)c1)C(=O)Nc1ccccc1 (configuration not stated) | Non-Toxic | Active
